Source: PMC3827244, “An Ultrasensitive High Throughput Screen for DNA Methyltransferase 1-Targeted Molecular Probes” (PLoS ONE, 2013)

Columns and labels:
CD-DNMT3A/DNMT3L complex = target: T1, CD-DNMT3A/DNMT3L complex (Homo sapiens, UniProt Q9Y6K1); assay: Compound selectivity, endonuclease-coupled DNA methylation assay; format: biochemical; conditions: 20 µM inhibitor, 20 nM methyltransferase, 0.25 mM SAM
T1 construct: CD-DNMT3A; amino acids 611–912; His tag (N); made in house; host or cells: Rosetta 2(DE3)pLysS (E. coli) for CD-DNMT3A
T1 sequence (Q9Y6K1 611-912): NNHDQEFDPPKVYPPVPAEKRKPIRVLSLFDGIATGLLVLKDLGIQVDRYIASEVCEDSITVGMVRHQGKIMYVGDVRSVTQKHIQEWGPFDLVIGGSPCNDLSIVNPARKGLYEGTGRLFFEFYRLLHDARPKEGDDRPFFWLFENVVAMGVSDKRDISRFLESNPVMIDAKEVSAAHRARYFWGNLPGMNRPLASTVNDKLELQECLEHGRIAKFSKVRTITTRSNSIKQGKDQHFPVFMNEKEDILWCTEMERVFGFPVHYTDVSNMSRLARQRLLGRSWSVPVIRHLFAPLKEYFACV
T1 sequence (Q9UJW3 whole entry partner, the tested form may be a part): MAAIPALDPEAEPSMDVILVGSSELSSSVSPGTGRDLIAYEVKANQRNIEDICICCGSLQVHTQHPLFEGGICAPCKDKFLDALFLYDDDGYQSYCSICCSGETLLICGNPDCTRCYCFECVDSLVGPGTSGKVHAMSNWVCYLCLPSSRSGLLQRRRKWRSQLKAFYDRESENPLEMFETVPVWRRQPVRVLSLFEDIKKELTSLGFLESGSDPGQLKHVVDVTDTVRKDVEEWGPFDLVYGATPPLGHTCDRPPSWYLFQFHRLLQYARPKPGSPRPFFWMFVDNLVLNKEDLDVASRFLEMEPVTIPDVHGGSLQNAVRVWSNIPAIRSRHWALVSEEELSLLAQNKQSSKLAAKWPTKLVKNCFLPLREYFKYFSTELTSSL
Description: (§1) Triplicate assays (100 µl) containing 0.25 mM SAM, 0.2 µM oligonucleotide 8006, 0.8 U GlaI, 20 nM methyltransferase, 20 µM inhibitor and 1% DMSO were conducted in 96 well plates. Following enzyme addition, assay plates were incubated at 37°C for 75 min and fluorescence was measured in a BioTek Neo plate reader. A control containing only GlaI was subtracted from each assay. […] Percent activity was determined by comparing product formation to a DMSO containing control assay.

[1] = target: T2, RFTS-containing DNMT1 (amino acids 351–1616) (Homo sapiens, UniProt P26358); assay: as above; format: biochemical; conditions: 20 µM inhibitor, 20 nM methyltransferase, 0.25 mM SAM
T2 construct: RFTS-containing DNMT1, amino acids 351–1616; made in house
T2 sequence (P26358 351-1616): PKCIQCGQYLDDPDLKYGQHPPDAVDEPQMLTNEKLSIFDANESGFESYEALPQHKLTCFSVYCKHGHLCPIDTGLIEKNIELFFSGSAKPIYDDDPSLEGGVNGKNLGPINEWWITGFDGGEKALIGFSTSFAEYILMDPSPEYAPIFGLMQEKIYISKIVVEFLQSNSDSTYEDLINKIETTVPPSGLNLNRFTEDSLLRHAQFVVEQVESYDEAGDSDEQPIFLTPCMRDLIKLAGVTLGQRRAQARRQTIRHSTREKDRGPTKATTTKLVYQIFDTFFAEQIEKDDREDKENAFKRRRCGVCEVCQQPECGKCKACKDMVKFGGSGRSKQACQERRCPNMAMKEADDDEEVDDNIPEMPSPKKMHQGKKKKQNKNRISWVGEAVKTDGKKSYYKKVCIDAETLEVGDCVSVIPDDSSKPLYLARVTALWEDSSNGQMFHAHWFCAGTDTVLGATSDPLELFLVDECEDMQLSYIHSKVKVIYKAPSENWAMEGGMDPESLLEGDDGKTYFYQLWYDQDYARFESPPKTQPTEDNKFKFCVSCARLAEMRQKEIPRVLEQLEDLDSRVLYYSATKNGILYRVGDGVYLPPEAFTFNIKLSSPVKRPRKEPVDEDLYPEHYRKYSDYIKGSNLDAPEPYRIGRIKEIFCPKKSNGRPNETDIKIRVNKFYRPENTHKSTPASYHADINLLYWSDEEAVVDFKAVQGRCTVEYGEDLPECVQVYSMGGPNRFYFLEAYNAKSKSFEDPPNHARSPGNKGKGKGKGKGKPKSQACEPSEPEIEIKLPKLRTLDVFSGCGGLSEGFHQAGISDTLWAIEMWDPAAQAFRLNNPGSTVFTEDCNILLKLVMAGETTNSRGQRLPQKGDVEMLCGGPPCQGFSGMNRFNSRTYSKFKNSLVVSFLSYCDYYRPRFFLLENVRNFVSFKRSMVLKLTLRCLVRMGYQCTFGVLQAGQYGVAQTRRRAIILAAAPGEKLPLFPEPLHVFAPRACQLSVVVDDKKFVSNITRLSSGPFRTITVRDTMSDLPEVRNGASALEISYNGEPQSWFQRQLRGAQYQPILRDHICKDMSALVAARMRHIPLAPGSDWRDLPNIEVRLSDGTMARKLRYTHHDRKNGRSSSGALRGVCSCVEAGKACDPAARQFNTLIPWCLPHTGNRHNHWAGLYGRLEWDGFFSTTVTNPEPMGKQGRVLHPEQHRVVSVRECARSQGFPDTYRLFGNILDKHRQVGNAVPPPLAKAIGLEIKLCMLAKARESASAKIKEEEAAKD
Description: as §1

M.SssI DNMT = target: T3, M.SssI DNMT (Spiroplasma monobiae, UniProt P15840); assay: as above; format: biochemical, bacterial; conditions: 1.25 h; 20 µM inhibitor, 20 nM methyltransferase, 0.25 mM SAM; read-out: Percent activity, M.SssI DNMT
T3 construct: purchased New England Biolabs
T3 sequence (P15840 whole entry): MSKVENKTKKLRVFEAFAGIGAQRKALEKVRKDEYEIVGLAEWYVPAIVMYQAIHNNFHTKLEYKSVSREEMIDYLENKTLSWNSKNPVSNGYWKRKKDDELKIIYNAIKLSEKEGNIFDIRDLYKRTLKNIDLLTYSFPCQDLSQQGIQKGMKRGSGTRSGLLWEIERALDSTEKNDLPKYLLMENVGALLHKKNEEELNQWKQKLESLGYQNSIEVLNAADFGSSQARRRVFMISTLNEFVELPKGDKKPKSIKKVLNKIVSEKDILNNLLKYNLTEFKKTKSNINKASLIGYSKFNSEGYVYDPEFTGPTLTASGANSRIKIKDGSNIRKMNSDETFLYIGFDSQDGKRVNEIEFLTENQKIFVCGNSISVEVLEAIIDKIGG
Description: as §1, with “After identifying direct inhibitors of DNMT1 lacking the RFTS domain, inhibitor selectivity was assessed by examining inhibition of RFTS-containing DNMT1 (amino acids 351–1616), CD-DNMT3A/DNMT3L complex, and the bacterial cytosine methyltransferase from M. SssI (New England Biolabs) using the endonuclease-coupled DNA methylation assay. Triplicate” for “Triplicate”

calf thymus DNA = assay: DNA intercalation assay (ethidium bromide displacement); format: binding; conditions: 10 µM compound
Description: DNA intercalation was assessed by examining the ability of the compounds to displace ethidium bromide from calf thymus DNA (ctDNA; Sigma). Duplicate assays (100 µl) were conducted in black 96 well plates and contained 15 µg/ml ctDNA, 1.5 µM ethidium bromide and 10 µM compound in methylation assay buffer. DMSO was used as a negative control and daunorubicin (Sigma) was used as a positive control. Fluorescence was measured using excitation and emission wavelengths of 320 nm and 600 nm, respectively.

Structure (SMILES) | Percent activity, DNMT3A/DNMT3L Complex (CD-DNMT3A/DNMT3L complex) [%] | Percent activity, RFTS-containing Dnmt1 [1] [%] | remaining activity at 20 µM (M.SssI DNMT) [%] | DNA intercalation (in words) (calf thymus DNA) | RFU (ethidium bromide fluorescence) (calf thymus DNA; 15 µg/ml ctDNA, 1.5 µM ethidium bromide, DMSO 2370 ± 190) [RFU]
Nc1ncn([C@@H]2O[C@H](CO)[C@@H](O)[C@H]2O)c(=O)n1 [5-aza-cytidine, reference compound] | 97±10 | 100±11 | 100 ± 5 |  | 
COc1cccc2c1C(=O)c1c(O)c3c(c(O)c1C2=O)C[C@@](O)(C(C)=O)C[C@@H]3O[C@H]1C[C@H](N)[C@H](O)[C@H](C)O1 [Daunorubicin, daunorubicin, reference compound] |  |  |  | significantly reduced fluorescence | 605 ± 33
